# Reference: patent US6218431A, “Substituted biphenyls” (Bayer Corporation, priority 1997, dated 2001)
# Biological target: T1, glucagon receptor (Homo sapiens, UniProt P47871)
# T1 construct: expressed in transfected cells; host or cells: Chinese Hamster Ovary cells (CHO-HGR), membranes
# Assay: glucagon receptor binding assay (125I-glucagon, CHO-HGR membranes)
# Conditions: 20 μM; reported where 20 μM did not reduce glucagon binding by 50%
# Procedure: The affinity for the glucagon receptor of compounds of the present invention is determined by the glucagon receptor binding assay. Membranes were prepared from Chinese Hamster Ovary cells expressing the glucagon receptor (CHO-HGR) by scraping the cells into hypotonic lysis buffer (10 mM Tris, pH 7.4, 2 mM EDTA, 5 mM MgCl2 and 1 mM PMSF) and subjecting the material to Polytron homogenization. Nuclei were removed by a 15-min 800×g centrifugation step conducted at 4° C. Membranes containing the receptor were collected by centrifugation at 15,000×gfor 15 min at 4° C. The membranes were washed once in lysis buffer and suspended in 0.25 M sucrose, 10 mM Tris, 5 mM EDTA, pH 7.4. The membranes were used in ligand binding studies as reported (Yoo-Warren, H., Willse, A. G., Hancock, N., Hull, J., McCaleb, M., and Livingston, J. Regulation of Rat Glucagon Receptor Expression. Biochem. Biophysical Res. Commun. 1994, 205, 347-353). In brief, 10 ug of membrane protein was incubated in 130 μl of binding buffer that consisted of 20 mM Tris, […], 1 mM EDTA, 1 mg/ml BSA, and 1 mg/ml bacitracin. The membrane suspension was placed in each well of a 96-well filtration plate (glass fiber type C, Millipore). […] Following the addition of test compound, 50 μl of ^125 I-glucagon (9 fmol) (NEN) was added to each well. Control wells contained membranes, 0.5% DMSO (solvent for test compounds), radiolabeled glucagon without and with excess native glucagon (1 μM) to establish nonspecific binding. The plates were incubated for 60 min at room temperature, and then filtered on a Mllipore vacuum apparatus. Following a wash step with ice-cold PBS/0.1% BSA, the filters were punched into test tubes, and the membrane bound radioactivity was determined.
# T1 sequence (P47871 26-477): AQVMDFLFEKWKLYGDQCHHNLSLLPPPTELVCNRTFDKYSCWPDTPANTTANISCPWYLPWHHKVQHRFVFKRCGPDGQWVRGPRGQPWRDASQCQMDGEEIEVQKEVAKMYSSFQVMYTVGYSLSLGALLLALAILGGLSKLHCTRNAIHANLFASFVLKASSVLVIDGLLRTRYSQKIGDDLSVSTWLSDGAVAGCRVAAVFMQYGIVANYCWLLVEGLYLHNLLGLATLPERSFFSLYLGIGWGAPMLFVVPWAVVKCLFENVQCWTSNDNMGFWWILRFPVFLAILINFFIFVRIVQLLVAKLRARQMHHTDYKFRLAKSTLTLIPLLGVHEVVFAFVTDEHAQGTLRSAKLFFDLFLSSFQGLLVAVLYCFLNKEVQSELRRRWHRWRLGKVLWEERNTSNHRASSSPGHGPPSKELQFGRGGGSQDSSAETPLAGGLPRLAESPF
row,inhibition at 20 µM,Compound
1,34%,"CCCC=Cc1c(C(C)C)nc(C(C)C)c(CO)c1-c1ccccc1C [Example 141, 2,6-Diisopropyl-3-hydroxymethyl-4-(2-methylphenyl)-5-(pent-1-enyl)-pyridine]"
2,35.5%,"CCCC=Cc1c(C(C)C)nc(C(C)C)c(CO)c1-c1ccc(C(C)C)cc1 [Example 133, 2,6-Diisopropyl-3-hydroxymethyl-4-(4-isopropylphenyl)-5-(pent-1-enyl)pyridine]"
3,34.4%,"CCCCCc1c(C(C)C)nc(C(C)C)c(CO)c1-c1ccc(C(C)C)cc1 [Example 134, 2,6-Diisopropyl-3-hydroxymethyl-4-(4-isopropylphenyl)-5-pentylpyridine]"
4,27.4%,"CCCCCc1c(C(C)C)nc(C(C)C)c(CO)c1-c1ccccc1OC [Example 173, 2,6-Diisopropyl-3-hydroxymethyl-4-(2-methoxyphenyl)-5-pentylpyridine]"
5,11.6%,"CC(C)c1nc(C(C)C)c(CCCC(=O)O)c(-c2ccc(F)cc2)c1CO [Example 92, 2,6-Diisopropyl-3-hydroxymethyl-4-(4-fluorophenyl)-5-(3carboxypropyl)pyridine]"
6,5.11%,"CCCCCc1c(C(C)(C)O)nc(C(C)C)c(CO)c1-c1ccc(F)cc1 [Example 219, 2-(1-Hydroxy-1-methylethyl)-3-pentyl-4-(4-fluorophenyl)-5-hydroxymethyl-6-isopropylpyridine]"
7,40.3%,"C=CCc1c(C)cc(C)c(C(C)O)c1-c1ccc(F)cc1 (centres unmarked) [Example 196, 3,5-Dimethyl-2-(1-hydroxyethyl)-6-(prop-2-enyl)-4'-fluoro-1,1'-biphenyl]"
8,38.5%,"C=CC(O)c1c(C(C)C)nc(C(C)C)c(CCCCC)c1-c1ccc(F)cc1 (racemic) [Example 114, (±)-2,6-Diisopropyl-3-(1-hydroxy-2-propenyl)-4-(4-fluorophenyl)-5-pentylpyridine]"
9,36%,"CC(C)c1nc(C(C)C)c(CCCN(C)C)c(-c2ccc(F)cc2)c1CO [Example 89, 2,6-Diisopropyl-3-hydroxymethyl-4-(4fluorophenyl)-5-[(3-dimethyl-amino)propyl]pyridine]"
10,49.2%,"CCCCCc1c(C(C)C)nc(C(C)C)c(CNCC)c1-c1ccc(F)cc1 [Example 123, 2,6-Diisopropyl-3-(ethylamino)methyl-4-(4-fluorophenyl)-5-pentylpyridine]"
11,29.2%,"CC(C)c1nc(C(C)C)c(C(O)C(C)C)c(-c2ccc(F)cc2)c1CO (racemic) [Example 97, (±)-2,6-Diisopropyl-3-hydroxymethyl-4-(4-fluorophenyl)-5-[(1-hydroxy-2-methyl)propyl]pyridine]"
12,46.3%,"CCCCCc1c(C(C)C)nc(C(C)C)c(CO)c1-c1cccc(C)c1 [Example 140, 2,6-Diisopropyl-3-hydroxymethyl-4-(3-methylphenyl)-5-pentylpyridine]"
13,26.1%,"C#Cc1ccccc1-c1c(C=CCCC)c(C(C)C)nc(C(C)C)c1CO [Example 156, 2,6-Diisopropyl-3-hydroxymethyl-4-(2-ethynylphenyl)-5-(pent-1-enyl)-pyridine]"
14,42.1%,CC(C)c1nc(C(C)C)c(CN2CCC(c3ccccc3)CC2)c(-c2ccc(F)cc2)c1CO [Example 72]
15,38.8%,"CCCCN(CCCC)Cc1c(C(C)C)nc(C(C)C)c(CO)c1-c1ccc(F)cc1 [Example 80, 2,6-Diisopropyl-3-hydroxymethyl-4-(4fluorophenyl)-5-(dibutylamino)-methylpyridine]"

# Same assay, conditions: 125I-glucagon; 60 min at room temperature; read-out: IC50
row,IC50,Compound
1,10000 nM,"CC(C)c1nc(C(C)C)c(CN(C)C)c(-c2ccc(F)cc2)c1CO [Example 79, 2,6-Diisopropyl-3-hydroxymethyl-4-(4-fluorophenyl)-5-(dimethylamino)-methylpyridine]"
2,86 nM,"CCCCCc1c(C(C)C)cc(C(C)C)c(C(C)O)c1-c1ccc(F)cc1 (single isomer, unassigned; (+)) [Example 243, (+)-3,5-Diisopropyl-2-(1-hydroxyethyl)-6-pentyl-4'-fluoro-1,1'-biphenyl]"
3,20000 nM,"CCCCCc1c(C(C)C)nc(C(C)C)c(CO)c1-c1cccnc1 [Example 186, 2,6-Diisopropyl-3-hydroxymethyl-4-(pyridin-3-yl)-5-pentylpyridine]"
4,86 nM,"CCCCCc1c(C(C)C)cc(C(C)C)c(C(C)O)c1-c1ccc(F)cc1 (single isomer, unassigned; (+)) [Example 193, (+)-3,5-Diisopropyl-2-(1-hydroxyethyl)-6-pentyl-4'-fluoro-1,1-biphenyl]"
5,80 nM,"CCCc1c(C(C)C)nc(C(C)C)c(CO)c1-c1ccc(F)cc1O (racemic) [Example 239-rac, 2,6-Diisopropyl-3-(1-hydroxymethyl)-4-(4-fluoro-2-hydroxyphenyl)-5-propylpyridine]"
6,12000 nM,"CCCC=Cc1c(C(C)C)nc(C(C)C)c(CO)c1-c1ccoc1 [Example 187, 2,6-Diisopropyl-3-hydroxymethyl-4-(3-furyl)-5-(pent-1-enyl)pyridine]"
7,3000 nM,"CCCCCc1c(C(C)C)nc(C(C)C)c(C(C)O)c1-c1ccc(F)cc1 (single isomer, unassigned) [Example 107, 2,6-Diisopropyl-3-(1-hydroxyethyl-4-fluorophenyl)-5-pentylpyridine]"
8,1100 nM,"Cc1ccc(CCc2c(C(C)C)nc(C(C)C)c(CO)c2-c2ccc(F)cc2)cc1 [Example 45, 2,6-Diisopropyl-3-hydroxyl methyl-4-(4-fluorophenyl)-5-[2-(4-methyl-phenyl)ethyl]pyridine]"
9,1700 nM,"CC(C)c1ccc(SCc2c(C(C)C)nc(C(C)C)c(CO)c2-c2ccc(F)cc2)cc1 [Example 63, 2,6-Diisopropyl-3-hydroxymethyl-4-(4-fluorophenyl)-5-[(4-isopropyl-phenyl)thio]methylpyridine]"
10,2000 nM,"CCCCCc1c(CC(C)C)nc(C(C)C)c(CO)c1-c1ccc(F)cc1 [Example 228, 2-Isopropyl-3-hydroxymethyl-4-(4-fluorophenyl)-5-pentyl-6-(2-methylpropyl)pyridine]"
11,17000 nM,"CCCC=Cc1c(C(C)C)nc(C(C)C)c(CO)c1-c1cccc(C)c1 [Example 139, 2,6-Diisopropyl-3-hydroxymethyl-4-(3-methylphenyl)-5-(pent-1-enyl)-pyridine]"
12,600 nM,"CC(C)c1nc(C(C)C)c(C(C)O)c(-c2ccc(F)cc2)c1-c1ccccc1 (centres unmarked) [Example 233, 2,6-Diisopropyl-3-(1-hydroxyethyl)-4-(4-fluorophenyl)-5-phenylpyridine]"
13,750 nM,"CC(C)c1nc(C(C)C)c(CSCCc2ccccc2)c(-c2ccc(F)cc2)c1CO [Example 65, 2,6-Diisopropyl-3-hydroxymethyl-4-(4-fluorophenyl)-5-[(phenethyl)-thiomethyl]pyridine]"
14,1000 nM,"CCCSCc1c(C(C)C)nc(C(C)C)c(CO)c1-c1ccc(F)cc1 [Example 66, 2,6-Diisopropyl-3-hydroxymethyl4-(4-fluorophenyl)-5-(propylthio)-methylpyridine]"
15,1900 nM,"CC(C)c1nc(C(C)C)c(CC=Cc2ccccc2)c(-c2ccc(F)cc2)c1CO [Example 82, 2,6-Diisopropyl-3-hydroxymethyl-4-(4-fluorophenyl)-5-(3-phenyl-2-propenyl)pyridine]"
16,12000 nM,"CCCc1c(C)cc(C)c(C(C)O)c1-c1ccc(F)cc1 (centres unmarked) [Example 195, 3,5-Dimethyl-2-(1-hydroxyethyl)-6-propyl-4'-fluoro-1,1'-biphenyl]"
17,400 nM,"CCCc1c(C(C)C)nc(C(C)C)c(CO)c1-c1ccc(F)cc1 [Example 25, 2,6-Diisopropyl-3-hydroxymethyl-4-(4-fluorophenyl)-5-propylpyridine]"
18,700 nM,"CCCCCCCc1c(C(C)C)nc(C(C)C)c(CO)c1-c1ccc(F)cc1 [Example 35, 2,6-Diisopropyl-3-hydroxymethyl-4-(4-fluorophenyl)-5-heptylpyridine]"
19,9000 nM,CC(C)c1cc(C(C)C)c(CSc2cc(Cl)cc(Cl)c2)c(-c2ccc(F)cc2)c1CO [Example 285]
20,1100 nM,"CSCc1c(C(C)C)nc(C(C)C)c(CO)c1-c1ccc(F)cc1 [Example 67, 2,6-Diisopropyl-3-hydroxymethyl-4-(4-fluorophenyl)-5-(methylthio)-methylpyridine]"
21,1800 nM,"CCCCCCC=Cc1c(C(C)C)nc(C(C)C)c(CO)c1-c1ccc(F)cc1 [Example 33, 2,6-Diisopropyl-3-hydroxymethyl-4-(4-fluorophenyl)-5-(1-octenyl)-pyridine]"
22,1000 nM,"CCCC=Cc1c(C(C)C)cc(C(C)C)c(CO)c1-c1ccc(F)cc1 [Example 194, 3,5-Diisopropyl-2-hydroxymethyl-6-(pent-1-enyl)-4'-fluoro-1,1'-biphenyl]"

row,Compound,IC50
1,"CCCCCc1c(C(C)C)nc(C(C)C)c(CO)c1-c1ccc(Cl)cc1 [Example 144, 2,6-Diisopropyl-3-hydroxymethyl-4-(4-chlorophenyl)-5-pentylpyridine]",800 nM
